Measurements taken from ChEMBL document CHEMBL4118132, “Novel 5-methyl-2-phenylphenanthridium derivatives as FtsZ-targeting antibacterial agents from structural simplification of natural product sanguinarine” (2018).
Activity calls are given as the source filed them. The rule behind the calls is not given here.

Experiments:
Staphylococcus aureus [1] = assay: Antibacterial activity against penicillin-susceptible Staphylococcus aureus ATCC 25923 after 24 hrs by broth microdilution method; assay type: functional; details: ATCC 25923, 24 h
Bacillus pumilus [2] = assay: Antibacterial activity against penicillin-susceptible Bacillus pumilus ATCC 63202 after 24 hrs by broth microdilution method; assay type: functional; details: ATCC 63202, 24 h
Staphylococcus aureus [3] = assay: Potency index, ratio of oxacillin sodium MIC to test compound MIC for penicillin-susceptible Staphylococcus aureus ATCC 25923; assay type: functional
[4] = tested on: Staphylococcus epidermidis; assay: Potency index, ratio of oxacillin sodium MIC to test compound MIC for penicillin-resistant Staphylococcus epidermidis clinical isolate; assay type: functional
Streptococcus pyogenes [5] = assay: Potency index, ratio of ciprofloxacin MIC to test compound MIC for penicillin-susceptible Streptococcus pyogenes; assay type: functional
Streptococcus pyogenes [6] = assay: Potency index, ratio of oxacillin sodium MIC to test compound MIC for penicillin-susceptible Streptococcus pyogenes; assay type: functional
Bacillus subtilis = assay: Potency index, ratio of ciprofloxacin MIC to test compound MIC for penicillin-susceptible Bacillus subtilis ATCC 9372; assay type: functional
Bacillus pumilus [7] = assay: Potency index, ratio of ciprofloxacin MIC to test compound MIC for penicillin-susceptible penicillin-susceptible Bacillus pumilus ATCC 63202; assay type: functional
Bacillus pumilus [8] = assay: Potency index, ratio of oxacillin sodium MIC to test compound MIC for penicillin-susceptible penicillin-susceptible Bacillus pumilus ATCC 63202; assay type: functional
Streptococcus pyogenes [9] = assay: Potency index, ratio of ciprofloxacin MIC to test compound MIC for penicillin-resistant Streptococcus pyogenes; assay type: functional
Staphylococcus aureus [10] = assay: Bactericidal activity against penicillin-susceptible Staphylococcus aureus ATCC 25923 assessed as bacterial levels at 32 ug/ml after 2 hrs by time-kill assay (reference value: 6.13 to 6.17 log10CFU/ml); assay type: functional
Staphylococcus aureus [11] = assay: Bactericidal activity against penicillin-susceptible Staphylococcus aureus ATCC 25923 assessed as bacterial levels at 8 ug/ml after 12 hrs by time-kill assay (reference value: 6.13 to 8.01 log10CFU/ml); assay type: functional
Staphylococcus aureus [12] = assay: Bactericidal activity against penicillin-susceptible Staphylococcus aureus ATCC 25923 assessed as bacterial levels at 32 ug/ml after 24 hrs by time-kill assay (reference value: 6.13 to 8.34 log10CFU/ml); assay type: functional
[13] = molecular target: T1, Cell division protein FtsZ (Staphylococcus aureus) (UniProt P0A031); assay: Inhibition of FtsZ in penicillin-susceptible Staphylococcus aureus ATCC 25923 assessed as increase in length of bacteria at 0.125 ug/ml after 5 hrs by phase-contrast light microscopic method
T1 sequence (whole entry): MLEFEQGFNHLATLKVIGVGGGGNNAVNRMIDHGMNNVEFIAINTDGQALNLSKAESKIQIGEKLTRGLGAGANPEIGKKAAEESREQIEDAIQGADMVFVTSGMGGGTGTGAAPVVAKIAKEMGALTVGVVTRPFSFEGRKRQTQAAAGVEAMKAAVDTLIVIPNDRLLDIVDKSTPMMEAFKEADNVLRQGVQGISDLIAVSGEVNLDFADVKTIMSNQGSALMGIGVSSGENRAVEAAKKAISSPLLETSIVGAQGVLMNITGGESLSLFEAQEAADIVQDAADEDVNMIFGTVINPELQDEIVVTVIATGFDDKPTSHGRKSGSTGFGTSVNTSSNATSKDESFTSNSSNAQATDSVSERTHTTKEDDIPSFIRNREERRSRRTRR

Cc1cc(-c2ccc(C(F)(F)F)cc2)cc2c3ccccc3c[n+](C)c12.[Cl-]
MIC (Staphylococcus aureus [1]): 0.06 µg/mL | MIC (Bacillus pumilus [2]): 0.06 µg/mL | Ratio (Staphylococcus aureus [3]): 67 | Ratio [4]: 512 | Ratio (Streptococcus pyogenes [5]): 8 | Ratio (Streptococcus pyogenes [6]): 1 | Ratio (Bacillus subtilis): 33 | Ratio (Bacillus pumilus [7]): 133 | Ratio (Bacillus pumilus [8]): 533 | Ratio (Streptococcus pyogenes [9]): 32 | Activity (Staphylococcus aureus [10]): 5.18 log10CFU/ml | Activity (Staphylococcus aureus [11]): 5.78 log10CFU/ml | Activity (Staphylococcus aureus [12]): 0 log10CFU/ml | inhibition [13]: Active
